Measured values taken from US20250270159A1, “1-(CYCLOBUTANEMETHYLIDENE)-2, 4, 5-TRIMETHOXYBENZENE COMPOUND AND PREPARATION METHOD AND USE THEREOF” (CHENGDU XINRUI TAIKANG TECHNOLOGY CO., LTD., priority 2023, published 2025).

Tests used:
[1] = tested on: rat model of lithium-pilocarpine-induced epilepsy; assay: Survival of SE model rats after drug intervention in the acute phase; format: in vivo, Sprague Dawley (SD) rats; conditions: 50 mg/kg ip; Logrank test P<0.05 vs model; FIG. 1
Experimental: Methylscopolamine bromide, lithium chloride, and pilocarpine were weighed, and experimental drugs were dissolved to working concentrations (100 mg/mL of lithium chloride solution, 1 mg/mLof methylscopolamine bromide solution, and 20 mg/mL of pilocarpine solution) with 0.9% saline. Rats were injected intraperitoneally with lithium chloride (a dose of 127 mg/kg), and 18-20 h later, scopolamine methylbromide (a dose of 1 mg/kg) was injected intraperitoneally. […] Thereafter, an additional dose of 10 mg/kg pilocarpine was injected intraperitoneally every 30 min until the onset of a grade IV or higher status epilepticus (SE)-like seizure without significant intermittent intervals, with a maximum dose of 60 mg/kg.
The rats with successful modeling were randomly divided into three groups, namely a model group, a CTMB group, and a sodium valproate (VPA) group. Administration was carried out after 1 h of SE onset, with a blank emulsion given by intraperitoneal injection in the model group, a CTMB emulsion injection at a dose of 50 mg/kg given by intraperitoneal injection in the CTMB group, and sodium valproate at a dose of 300 mg/kg given by oral gavage in the VPA group. […]
The differences between the survival curves of the rats in each group were analyzed by a Logrank test.

IL-6 = IL-6 in cerebral cortex of TBI rats; format: in vivo, SD rats; conditions: 30 mg/kg ip 2 h after TBI; 24 h after administration; FIG. 3
Experimental: The experimental grouping and drug administration plan were as follows. • Sham operation group (Group P): saline was given with the same volume as in the CTMB group; • Model group (T group): a blank emulsion was given with the same volume as in the CTMB group; • Medium dose group (Group M): a dose of 30 mg/kg of CTMB emulsion injection was given.
The experimental grouping and drug administration plan were the same as the test 3. After 2 h of the TBI modeling, different groups of rats were administered intraperitoneally. After 24 h of the administration, the rats were deeply anesthetized, the head was severed and the brain was removed, about 60-120 mg of hemisphere cortex was taken out from the hemisphere on the blood side, 10 times the volume of ice-cold centrifugal buffer used for biochemical assays was added, homogenization was carried out in an ice bath for 10 min, and centrifugation was carried out at 4° C. and 14000 rpm/min for 30 min. The supernatant was extracted, and inflammatory factors IL-1, IL-6, and TNF-α were tested according to the instructions of IL-1, IL-6, and TNF-α assay kits, respectively.

[2] = tested on: Tyrosine hydroxylase (TH) protein expression; assay: TH protein expression by immunohistochemistry in substantia nigra of PD mice; format: in vivo, C57 mice; conditions: Group D, CTMB 20 mg/kg ip, after 4 weeks of administration
Experimental: (§1) The mice were randomly divided into a sham operation group (group S, given a blank emulsion with a volume equal to that of the administered group), a model group (group M, given a blank emulsion with a volume equal to that of the administered group), a CTMB group (20 mg/kg, group D), and a levodopa group (levodopa: benserazide hydrochloride=4:1, 12 mg/kg, group L), each group included 10-12 mice, and all of them were administered intraperitoneally.
After completing the evaluation of motor function after 4 weeks of drug administration, the mice were deeply anesthetized, perfused with 20 mL of saline and 20 mL of 4% paraformaldehyde via the heart, and the brains were rapidly severed and extracted from the head, which were then preserved and fixed in 4% paraformaldehyde for 72 h after removal, and then embedded with paraffin to prepare the slices with a thickness of 4 μm for subsequent pathological and histological studies.
Tyrosine hydroxylase (TH) protein expression was detected by immunohistochemistry. […]

Malondialdehyde (MDA) = assay: MDA content in striatum of PD mice; format: in vivo, C57 mice; conditions: Group D, CTMB 20 mg/kg ip, after 4 weeks, injured side
Experimental: as §1
(§2) Malondialdehyde (MDA) is a commonly used indicator of membrane lipid peroxidation, reduced glutathione (GSH) is one of the most commonly used non-enzymatic indicators of antioxidant substances, and superoxide dismutase (SOD) is a common indicator of antioxidant enzymes. After completing the evaluation of motor function after 4 weeks of drug administration, the mice were deeply anesthetized and perfused with 20 mL of saline via the heart. The brain was rapidly severed to isolate the striatal region on the injured side (right side), weighed, and placed into a 1.5 mL EP tube, and homogenized at low temperature by adding phosphate-buffered saline (PBS) at the ratio of a weight of animal tissues (g) to a volume of homogenization medium (mL) of 1:9. […]

[3] = tested on: superoxide dismutase (SOD); assay: SOD activity in striatum of PD mice; format: in vivo, C57 mice; conditions: Group D, CTMB 20 mg/kg ip, after 4 weeks, injured side
Experimental: as §1, §2

COc1cc(OC)c(OC)cc1C=C1CCC1 [CTMB, 1-(cyclobutylidenemethyl)-2,4,5-trimethoxybenzene]
survival rate of the SE model rats [1]: significantly increases the survival rate
content of IL-6 in cerebral cortex tissue (IL-6): significantly reduced
TH-positive neurons (a percentage of TH-positive neurons to uninjured side, %) [2]: 39.9 ± 12.1^###,***^, && %
MDA (Malondialdehyde (MDA)): 2.04 ± 0.57 μmol/g protein
SOD [3]: 80.24 ± 10.46 U/mg protein
